According to patent US20230233305A1, “METHOD OF AMELIORATING OR TREATING INFLAMMATORY IN AN ORAL CAVITY” (priority 2022, published 2023):

Experiments:
LC3B = experiment: Immunohistochemistry of inflamed oral mucosal tissue with anti-LC3B; format: in vivo, domestic cats; conditions: after 6-week treatment vs 0th week
Experimental: (§1) The procedure of immunohistochemistry is briefly described as following. All steps are performed on the Leica Bond Max automatic immunohistochemistry machine. The aforementioned inflamed oral mucosal tissues fixed with formalin and embedded in paraffin is sectioned with a thickness of 5 μm, and placed on a glass slide suitable for performing immunohistochemistry. The tissue section is placed in a 50° C. oven for 15 minutes and is dewaxed twice with Bond Dewax Solution for 5 minutes. The tissue section is washed three times with Tris buffered saline (TBS, pH 7.6) for 5 minutes, and then treated with Bond Leica Alcohol for 5 minutes for tissue rehydration. After being washed three times with TBS for 5 minutes, the tissue section is heated at 100° C. with Bond Citrate buffer (pH 6), and the tissue used for detecting VDR is heated for 20 minutes, and the tissue used for detecting LC3B is heated for 40 minutes. After being washed three times with TBS for 5 minutes, the tissue section is reacted with Bond Peroxide solution for 8 minutes. After being washed three times with TBS for 5 minutes, the tissue section is reacted with Bond Protein blocking solution for 10 minutes. After being washed three times with TBS for 5 minutes, the tissue section is reacted with the primary antibodies for 30 minutes at room temperature, wherein the dilution ratio of anti-VDR antibody (ab3508) is 500×, and the dilution ratio of anti-LC3B antibody (ab239416) is 50×. After being washed three times with TBS for 5 minutes, the tissue section is reacted with Bond Post primary solution containing rabbit anti-mouse IgG antibody for 10 minutes. After being washed three times with TBS for 5 minutes, the tissue section is reacted with Bond Post primary solution containing Poly-HPR IgG for 10 minutes. After being washed three times with TBS for 5 minutes, the tissue section is reacted twice with Bond DAB solution for 3 minutes for coloration. […] The staining intensity and frequency of oral mucosal epithelial cells in the tissues are evaluated by the method provided by Shackelford. […]

VDR = experiment: Immunohistochemistry of inflamed oral mucosal tissue with anti-VDR; format: in vivo, domestic cats; conditions: after 6-week treatment vs 0th week
Experimental: as §1

[1] = system: domestic cats with feline chronic gingivostomatitis (FCGS); experiment: Stomatitis disease activity index (SDAI) after mucogingival replacement surgery; format: in vivo
Text: The stomatitis disease activity index is to score the condition of the subject by the following three aspects respectively and then add three scores to get the index: (1) owner evaluation (total score 0-3): the quality of life including appetite, activity level, grooming behavior, and perceived comfort would be scored by the owner, with a scale of 0-3, 0 is the best, and 3 is the worst; (2) weight (total score 0-3): the change in weight compared to most recent visit, with a scale of 0-3, 0 is an increase of more than 0.5 kg, 1 is an increase of 0.25-0.5 kg, 2 is an increase of 0-0.25 kg, and 3 is weight loss; (3) inflammatory symptoms (total score 0-24): inflammation in 8 different areas of the oral cavity, including maxillary buccal mucosa, mandibular buccal mucosa, maxillary attached gingiva, mandibular attached gingiva, lateral to palatoglossal folds, molar salivary gland, oropharynx, and sublingual area, with scale of 0-3, 0 is none, 1 is mild, 2 is moderate, and 3 is severe.

[2] = 0th week, vitamin D 200 ng/kg oral + 5 mg/kg deoxytetracycline (control: deoxytetracycline only), 5 mg/kg
[3] = 6th week, vitamin D 200 ng/kg oral + 5 mg/kg deoxytetracycline (control: deoxytetracycline only), 5 mg/kg

Row | Substance | LC3B in the inflamed oral mucosal tissue (IHC intensity and frequency) (LC3B) | VDR in the inflamed oral mucosal tissue (IHC intensity and frequency) (VDR) | stomatitis disease activity index (SDAI) score ([1]; 0th week, vitamin D 200 ng/kg oral + 5 mg/kg deoxytetracycline (control: deoxytetracycline only)) | stomatitis disease activity index (SDAI) score ([1]; 2nd week, 5 mg/kg deoxytetracycline) | stomatitis disease activity index (SDAI) score ([1]; 6th week, vitamin D 200 ng/kg oral + 5 mg/kg deoxytetracycline (control: deoxytetracycline only)) | stomatitis disease activity index (SDAI) score [1, 2] | stomatitis disease activity index (SDAI) score [1, 3]
1 | deoxytetracycline [control group (A)] | basically maintains a constant value | decreases | 11.44 | 9.19 | 11.22 |  | 
2 | vitamin D [water-soluble vitamin D] | increases | remains unchanged |  |  |  | 17.67 | 13.92
3 | vitamin D [fat-soluble vitamin D] | increases | increases |  |  |  | 13 | 11.5
